Measurements taken from patent publication US20220378923A1, “BET DEGRADER” (KYOWA KIRIN CO., LTD., priority 2019, published 2022).
Counter-ions that a name gives are not always drawn. Like-named read-outs stand apart in the source and are kept apart here.

Columns and labels:
Assay type in all cases: cell-based, human
[1] = test system: MYC mRNA expression in SU-DHL-4 cells; assay: Suppressive effect on MYC mRNA expression (Test Example 2); conditions: test compound 100 nmol/L, 6 hours, qRT-PCR corrected by ACTB, GAPDH; for inhibition at 0.1 µM: Homo sapiens, HPRT1, read-out: Suppression Rate of MYC mRNA Expression (%)
Procedure: The cells were passaged twice a week at a volume of 20-40 mL so as to maintain a cell concentration of 1×10^6 cells/mL or less. The cultured SU-DHL-4 cells were seeded at 6×10^5 cells/well in a transparent 6-well plate (Code No. 140675, Thermo Fisher Scientific). After seeding, the cells were precultured at 37° C. in a carbon dioxide gas incubator for 18 to 25 hours. […] At this time, the final concentration of DMSO was adjusted to be 0.1 vol %. After adding the test compound, the cells were cultured at 37° C. in a carbon dioxide gas incubator for 6 hours. Then, the cells were collected by centrifugation and used for extraction of mRNA. mRNA extraction from cells was performed using Maxwell® 16 LEV simplyRNA Purification Kits (Code No. AS1270, Promega). The mRNA recovery protocol was performed according to the manufacturer's recommended protocol attached to the kit. […] The cDNA conversion was performed, according to the manufacturer's recommended protocol attached to the kit, in 0.020 mL of the reaction solution, and GeneAmp® PCR System 9700 (Applied Biosystems) was used. The cDNA-converted sample was diluted 10-fold by adding 0.180 mL of RNase Free Water (Code No. 10977-023, Thermo Fisher Scientific) and used for quantitative real-time polymerase chain reaction (qRT-PCR). For the calibration curve of qRT-PCR, 0.08 mL of RNase Free Water was added to a cDNA sample using DMSO as a test compound for 5-fold dilution. Further, two 5-fold dilutions were prepared stepwise, and these three samples were used as the calibration curve samples. The following reagents were used for qRT-PCR: TaqMan Gene Expression Assays, Inventoried (Primer probe: Code No. 4331182, Thermo Fisher Scientific, Assay ID: (i) MYC: Hs00153408_m1, (ii) ACTB: Hs01060665_g1, (iii) GAPDH: Hs04420697_g1, (iv) HPRT1: […] Universal PCR Master Mix, no AmpEraseR UNG (Master Mix: Code No. 4367846, Thermo Fisher Scientific). Primer probe (0.001 mL), Master Mix (0.010 mL), water (0.004 mL) and the diluted cDNA sample (0.005 mL) were mixed, and qRT-PCR analysis was performed. For qRT-PCR analysis, QuantStudio 7 Flex (Thermo Fisher Scientific) or 7500 Fast Real-Time PCR (Applied Biosystems) was used to measure in Fast mode and analyze. […] Corrected MYC expression=A/B • A: MYC expression level • B: Geometric mean of expression levels of ACTB, GAPDH and HPRT1 Using the corrected values, the suppression rate of MYC expression for the wells to which the test compound was not added was calculated by the following formula. […] Corrected MYC expression level in a well containing test compound • D: Corrected MYC expression level in a well to which test compound was not added

[2] = test system: DCAF16 KO SU-DHL-4 cells; assay: Inhibitory effect on cell viability using SU-DHL-4 DCAF16 knock out (KO) cell line (Test Example 6)
Procedure: The human DLBCL cell line SU-DHL-4 was purchased from DSMZ. SU-DHL-4 was passaged using RPMI1640 medium containing 10 vol % FBS. After the Cas9 gene was introduced, the cells were cultured in the above medium containing 0.01 mg/mL blasticidin (InvivoGen, Cat No. ant-bl-1). After introduction of sgRNA, the cells were cultured in the above medium containing 0.0001 mg/mL puromycin dihydrochloride (SIGMA, Cat No. P9020-10 ML). The culture conditions were 37° C. and 5% CO2.
Edit-R Lentiviral hEF1α-Blast-Cas9 Nuclease Particles (Cat No. VCAS10126) was used as a lentivirus for expressing Cas9 in human cell lines. Three types of Edit-R Human DCAF16 Lentiviral sgRNA (Cat No. VSGH10142-246568260; DNA target sequence […] (SEQ ID NO: 1), Cat No. VSGH10142-246568262; DNA target sequence […] (SEQ ID NO: 2) and Cat No. VSGH10142-246568263; DNA target sequence […] (SEQ ID NO: 3)) were used as lentiviruses for introducing DCAF16 sgRNA. As a control, Edit-R Lentiviral sgRNA Non-targeting Control #1 (Cat No. VSGC10215) was used. All lentiviruses were purchased from Dharmacon and stored at −80° C. until use.
SU-DHL-4 was suspended at 4×10^5 cells/mL in RPMI 1640 without FBS, 0.25 mL of the suspension was added to a 24-well plate, and the cells were cultured overnight. The next day, 0.003 mL of virus particles of Edit-R Lentiviral hEF1α-Blast-Cas9 Nuclease Particles was added. After culturing in a CO2 incubator for 4 hours, RPMI 1640 containing 0.75 mL of 10 vol % FBS was added. After culturing in a CO2 incubator for about 48 hours, the medium was replaced with RPMI1640 containing 10 vol % FBS, and the cells were cultured in a CO2 incubator. Four days after infection, the medium was replaced with a medium containing 0.01 mg/mL blasticidin (InvivoGen, Cat No. ant-bl-1). Then, the cells were passaged once every 2 to 3 days and thus twice in total (that is, cultured for 1 week) to obtain SU-DHL-4/Cas9, which is a Cas9-introduced SU-DHL-4 cell line.
(6) sgRNA infection SU-DHL-4/Cas9 was suspended at 4×10^5 cells/mL in RPMI 1640 without FBS, 0.25 mL of the suspension was added to a 24-well plate, and the cells were cultured overnight. The next day, a total of 4 types of sgRNA virus particles, 1 type of Control and 3 types targeting DCAF16 were added to the respective wells by 0.03 mL. After culturing in a CO2 incubator for 5 hours, RPMI 1640 containing 0.75 mL of 10 vol % FBS was added.
After culturing in a CO2 incubator for about 48 hours, the medium was replaced with RPMI1640 containing 10 vol % FBS, and the cells were cultured in a CO2 incubator. Four days after infection, the medium was replaced with a medium supplemented with 0.01 mg/mL puromycin dihydrochloride (SIGMA, Cat No. P9020-10 ML). Then, the cells were passaged once or twice a week for 2 weeks, and a cell stock was prepared using CELLBANKER I plus (Takara Bio, Cat No. CB-021). Cell line stock was stored at −80° C. Using Edit-R Lentiviral sgRNA Non-targeting Control #1, the Negative Control sequence was introduced into the SU-DHL-4 cell line, which was referred to as SU-DHL-4 NC strain, and using Edit-R Human DCAF16 Lentiviral sgRNA, […] sequence (SEQ ID NO: 1) was introduced into the SU-DHL-4 cell line, which was referred to as SU-DHL-4 DCAF16 KO1 strain, […] sequence (SEQ ID NO: 2) was introduced into the SU-DHL-4 cell line, which was referred to as SU-DHL-4 DCAF16 KO2 strain, and […] sequence (SEQ ID NO: 3) was introduced into the SU-DHL-4 cell line, which was referred to as SU-DHL-4 DCAF16 KO 3 strain.
The cultured DCAF16 KO SU-DHL-4 cells were seeded at 2000 cells/well in a transparent 384-well plate (Code No. 781182, Greiner bio-one). After seeding, the cells were pre-cultured at 37° C. in a carbon dioxide gas incubator for 18 to 25 hours. […]

[3] = test system: SU-DHL-4 cells; assay: Inhibitory effect on cell viability in SU-DHL-4 cell line (Test Example 1); conditions: SU-DHL-4 cells, 72 hours, Cell Counting Kit-8, concentration showing 90% inhibition of cell viability, read-out: SU-DHL-4 Cell Viability Inhibition Rate IC90
Summary of the method: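 SU-DHL-4 cells were grown at 37° C. under 5% CO2 in RPMI1640 with 10 vol % heat-inactivated FBS plus penicillin/streptomycin, seeded and precultured for 18 to 25 hours, then exposed to test compound at 0.1 vol % DMSO for 72 hours. Viability was read with Cell Counting Kit-8 by absorbance at 450 nm.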

| IC90 ([3]; Homo sapiens) [nM] | Compound | inhibition at 0.1 µM [1] [%] | other results |
| --- | --- | --- | --- |
|  | CCC(=O)N1c2ccccc2[C@H](Nc2ccc(NC(=O)[C@H](C)NC(=O)c3ccc(N[C@@H]4C[C@H](C)N(C(=O)CC)c5ccccc54)cc3)cc2)C[C@@H]1C (relative stereo) [Compound 2d, 4-{[(2S,4R)-2-Methyl-1-propionyl-1,2,3,4-tetrahydroquinolin-4-yl]amino}-N-{(S)-1-[(4-{[(2S*,4R*)-2-methyl-1-propionyl-1,2,3,4-tetrahydroquinolin-4-yl]amino}phenyl)amino]-1-oxopropan-2-yl}benzamide] | 80 |  |
|  | CCC(=O)N1c2ccccc2[C@H](Nc2ccc(NC(=O)CCCC(=O)Nc3ccc(N[C@@H]4C[C@H](C)N(C(=O)CC)c5ccccc54)cc3)cc2)C[C@@H]1C (relative stereo) [Compound 4a, N^1,N^5-bis(4-{[(2S*,4R*)-2-Methyl-1-propionyl-1,2,3,4-tetrahydroquinolin-4-yl]amino}phenyl)glutaramide] | 98.4 | Activity Attenuation Ratio ([2]; (SU-DHL-4 DCAF16 KO IC50)/(SU-DHL-4 WT IC50)): 361; IC50 ([2]; Homo sapiens, DCAF16 KO SU-DHL-4 cells, 72 hours, Cell Counting Kit-8, 50% inhibition of cell viability): 75.8 nM |
|  | CCC(=O)N1c2ccccc2[C@H](Nc2ccc(NC(=O)CNC(=O)C(F)=C3CCC(N[C@@H]4C[C@H](C)N(C(=O)CC)c5ccccc54)CC3)cc2)C[C@@H]1C (relative stereo) [Compound 15k, 2-Fluoro-2-(4-(((2S*,4R*)-2-methyl-1-propionyl-1,2,3,4-tetrahydroquinolin-4-yl)amino)cyclohexylidene)-N-(2-((4-(((2S,4R)-2-methyl-1-propionyl-1,2,3,4-tetrahydroquinolin-4-yl)amino)phenyl)amino)-2-oxoethyl)acetamide] | 97.4 |  |
|  | CCC(=O)N1c2ccccc2[C@H](Nc2ccc(CCC(=O)NCC3(NC4CCC(N[C@@H]5C[C@H](C)N(C(=O)CC)c6ccccc65)CC4)COC3)cc2)C[C@@H]1C (stereo partly shown) [Compound 7h] |  | Suppression Rate of MYC mRNA Expression (%) ([1]; HPRT1): 97.5%; IC90 [3]: 5.47 nM |
| 1.89 | CCC(=O)N1c2ccccc2[C@H](Nc2ccc(-n3cc(CCNC(=O)C4CCN(Cc5cc(O)cc(-c6c(C)noc6C)c5)CC4)nn3)cc2)C[C@@H]1C [Compound 17l, 1-(3-(3,5-Dimethylisoxazol-4-yl)-5-hydroxybenzyl)-N-(2-(1-(4-(((2S,4R)-2-methyl-1-propionyl-1,2,3,4-tetrahydroquinolin-4-yl)amino)phenyl)-1H-1,2,3-triazol-4-yl)ethyl)piperidine-4-carboxamide formate] |  |  |
| 74.1 | CCC(=O)N1c2ccccc2[C@H](Nc2ccc(C(=O)NCc3nnc(C4CCN(Cc5cc(O)cc(-c6c(C)noc6C)c5)CC4)o3)cc2)C[C@@H]1C [Compound 17m, N-((5-(1-(3-(3,5-Dimethylisoxazol-4-yl)-5-hydroxybenzyl)piperidin-4-yl)-1,3,4-oxadiazol-2-yl)methyl)-4-(((2S,4R)-2-methyl-1-propionyl-1,2,3,4-tetrahydroquinolin-4-yl)amino)benzamide] |  |  |
| 0.35 | CCC(=O)N1c2ccccc2[C@H](Nc2ccc(NC(=O)C3CN(C(=O)c4ccc(C5CCN(c6ccc7nnc(Cl)n7n6)CC5)cc4)C3)cc2)C[C@@H]1C [Compound 17p, 1-(4-(1-(3-Chloro-[1,2,4]triazolo[4,3-b]pyridazin-6-yl)piperidin-4-yl)benzoyl)-N-(4-(((2S,4R)-2-methyl-1-propionyl-1,2,3,4-tetrahydroquinolin-4-yl)amino)phenyl)azetidine-3-carboxamide] |  |  |
